These results are taken from patent US20070111990A1, “3-Aza-1-oxa-dibenzo[e,h]azulenes for the treatment of central nervous system diseases and disorders” (GLAXOSMITHKLINE ISTRAZIVACKI CENTAR ZAGREB D.O.O., priority 2003, published 2007).

Structures are written as SMILES. Where only a bound is given, the exact number is not on record here.

One assay has as its target T1, 5-HT2A receptor (Homo sapiens, UniProt P28223).
T1 construct: expressed in transfected cells; host or cells: CHO-K1 (alternatively human cortex tissue)
In words: radioligand binding assay for 5-HT2A receptor ([3H]-ketanserin). The following applies: competitive binding; for IC50: human cortex or recombinant 5-HT2A in CHO-K1, read-out: binding affinity to 5-HT2A serotonin receptor expressed as IC50 value; for Ki: human cortex or recombinant 5-HT2A in CHO-K1, read-out: binding affinity to 5-HT2A serotonin receptor, Ki value. On the procedure: (§1) The effect of the compounds of the present invention on the neurochemical steady state was determined by in vitro investigations such as a radionuclide-marked radioligand binding assay for 5-HT2A (Bonhaus D. W. Br. J. Pharmacol. 1995, 115:622; Saucier C. J. Neurochem. 1997, 68:1998) and 5-HT2C receptors (Wolf W. A. J. Neurochem. 1997, 69:1449), in vitro binding assay for σ1 receptor (Thomson W. and Donn R. Arthritis Res. 2002, 4: 302-306) and by in vivo investigations in a tail suspension test (Vogel H. G. and Vogel W. H. Drug Discovery and Evaluation Pharmacological Assays, Springer 1997, 304), in amphethamine-induced hyperlocomotion in mice (Millan M. J. et al, 1998 J Pharmacol. Exp. Ther. 287: 167-186), in a forced swim test in mice (Porsolt R. D. et al. Arch. Int. Pharmacodyn. 1977, 229:327-336), in meta-chlorophenyl piperazine (m-CPP) test on rats (Drug Dev. Res. 1989, 18:119-144), and in apomorphine, tryptamine, norepinephrine (ATN) test in rats (Arch. Int. Pharmacodyn. 1977, 227:238-253).
(§2) In Vitro Method for Determining Affinity for Binding to 5-HT2A and 5-HT2C Receptors
(§3) A small concentration of a radioligand having a great affinity for binding to a receptor was incubated with a tissue sample enriched with a certain receptor (1-5 mg of tissue) in a buffered medium (0.2-5 mL). Recombinant human HT2A and HT2C receptors were expressed in CHO-K1 or COS-7 cells and were also used for competitive binding. During incubation the radioligand bound to the receptor. When a binding balance was achieved, the receptors to which the radioligand was bound were separated from those to which said ligand was not bound, and the radioactivity of the receptor/radioligand complex was measured. The interaction of the tested compounds with receptors was tested in competitive binding experiments. Various concentrations of tested compounds were added to the incubation mixture containing a prepared tissue enriched with corresponding receptors and the radioligand. The radioligand binding was inhibited by the test compounds proportionally to the affinity of a certain compound for the receptor and to the concentration of the compound.
The radioligand used for the determination of binding to ^5-HT2A receptor was [^3H]-ketanserin and the tissue used was human cortex or recombinant 5-HT2A receptor expressed in CHO—K1.

Another assay concerns the target T2, 5-HT2C receptor (Homo sapiens, UniProt P28335).
T2 construct: expressed in transfected cells; host or cells: CHO-K1 cells (alternatively choroid plexus tissue)
T2 sequence (P28335 33-458): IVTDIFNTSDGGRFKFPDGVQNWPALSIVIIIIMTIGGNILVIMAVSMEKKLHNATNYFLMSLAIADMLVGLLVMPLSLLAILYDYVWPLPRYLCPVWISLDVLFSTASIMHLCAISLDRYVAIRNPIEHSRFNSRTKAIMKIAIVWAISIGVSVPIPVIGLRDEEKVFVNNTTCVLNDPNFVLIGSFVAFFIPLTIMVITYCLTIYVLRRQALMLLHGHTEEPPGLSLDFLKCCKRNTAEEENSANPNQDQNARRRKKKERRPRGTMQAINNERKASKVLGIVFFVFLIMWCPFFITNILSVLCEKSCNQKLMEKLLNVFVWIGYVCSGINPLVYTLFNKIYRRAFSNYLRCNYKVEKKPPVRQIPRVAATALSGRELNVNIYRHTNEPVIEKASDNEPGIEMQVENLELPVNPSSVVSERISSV
In words: radioligand binding assay for 5-HT2C receptor ([3H]-mesulergine). The following applies: competitive binding; for IC50: choroid plexus or recombinant 5-HT2C in CHO-K1, read-out: binding affinity to 5-HT2C serotonin receptor expressed as IC50 value; for Ki: choroid plexus or recombinant 5-HT2C in CHO-K1, read-out: binding affinity to 5-HT2C serotonin receptor, Ki value. On the procedure:
as §1, §2, §3
The radioligand used for the determination of binding to 5-HT2C receptor was [^3H]-mesulergine and the tissue used was choroid plexus or recombinant 5-HT2C receptor expressed in CHO—K1 cells.

T1 sequence (P28223 whole entry): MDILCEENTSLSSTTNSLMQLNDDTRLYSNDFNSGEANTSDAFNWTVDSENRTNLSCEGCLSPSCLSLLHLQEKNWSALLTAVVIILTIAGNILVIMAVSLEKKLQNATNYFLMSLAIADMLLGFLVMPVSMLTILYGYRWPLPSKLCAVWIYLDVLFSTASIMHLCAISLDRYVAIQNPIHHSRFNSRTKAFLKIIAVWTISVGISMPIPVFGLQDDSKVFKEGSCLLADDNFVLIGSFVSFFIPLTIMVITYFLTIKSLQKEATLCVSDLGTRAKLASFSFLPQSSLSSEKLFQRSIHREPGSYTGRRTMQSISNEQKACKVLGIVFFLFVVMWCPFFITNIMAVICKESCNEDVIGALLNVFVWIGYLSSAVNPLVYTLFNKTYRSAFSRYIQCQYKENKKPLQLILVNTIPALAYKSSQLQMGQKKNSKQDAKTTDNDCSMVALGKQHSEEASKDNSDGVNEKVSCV

As for `c1ccc2c(c1)Sc1ccccc1-c1ocnc1-2` [1-oxa-8-thia-3-aza-dibenzo[e,h]azulene], on 5-HT2A receptor, the IC50 was below 200 nM and the Ki was below 100 nM. Besides, at 5-HT2C receptor, the IC50 is below 200 nM and the Ki was below 100 nM.

With `Cc1nc2c(o1)-c1ccccc1Oc1ccc(Cl)cc1-2` [5-chloro-2-methyl-1,8-dioxa-3-aza-dibenzo[e,h]azulene], at 5-HT2A receptor, the IC50 is below 200 nM and the Ki was below 100 nM. On 5-HT2C receptor, the IC50 was below 200 nM and the Ki was below 100 nM.

As for `CN(C)CCOCc1nc2c(o1)-c1ccccc1Sc1ccc(Cl)cc1-2` [[2-(5-chloro-1-oxa-8-thia-3-aza-dibenzo[e,h]azulen-2-ylmethoxy)-ethyl]-dimethyl-amine], on 5-HT2A receptor, the IC50 is below 200 nM and the Ki is below 100 nM. Besides, on 5-HT2C receptor, the IC50 is below 200 nM and the Ki is below 100 nM.

On to `CN(C)CCOCc1nc2c(o1)-c1cc(Cl)ccc1Sc1ccccc1-2` [[2-(11-chloro-1-oxa-8-thia-3-aza-dibenzo[e,h]azulen-2-ylmethoxy)-ethyl]-dimethyl-amine], for which, on 5-HT2A receptor, the IC50 is below 200 nM and the Ki is below 100 nM. At 5-HT2C receptor, the IC50 is below 200 nM and the Ki was below 100 nM.

For the molecule `CN(C)CCOCc1nc2c(o1)-c1ccccc1Sc1ccccc1-2` [dimethyl-[2-(1-oxa-8-thia-3-aza-dibenzo[e,h]azulen-2-ylmethoxy)-ethyl]-amine], the IC50 at 5-HT2A receptor and on 5-HT2C receptor was below 200 nM in each case. In addition, the Ki on 5-HT2A receptor and at 5-HT2C receptor was below 100 nM in each case.
